For test [1], the target named is Recombinant human Cbl-b (aa 36-427) (Homo sapiens, UniProt Q13191). The experiment in a line: Cbl-b Biochemical Assay (TR-FRET). To be noted: read-out: TR-FRET hCbl-b IC50. Background: In TR-FRET formats the signal depends on donor and acceptor labels being close together.
For test [2], the system named is Jurkat (clone E6-1) cells with NFAT luciferase reporter. The experiment in a line: Jurkat reporter assay (NFAT Luciferase). The format is cell-based. To be noted: Homo sapiens; Jurkat NFAT luciferase reporter cells, anti-CD3 stimulation, 6 hr; read-out: Jurkat NFAT EC50.
The target in test [3] is T1, Recombinant human c-Cbl (aa 47-435) (Homo sapiens, UniProt P22681).
T1 sequence (P22681 47-435): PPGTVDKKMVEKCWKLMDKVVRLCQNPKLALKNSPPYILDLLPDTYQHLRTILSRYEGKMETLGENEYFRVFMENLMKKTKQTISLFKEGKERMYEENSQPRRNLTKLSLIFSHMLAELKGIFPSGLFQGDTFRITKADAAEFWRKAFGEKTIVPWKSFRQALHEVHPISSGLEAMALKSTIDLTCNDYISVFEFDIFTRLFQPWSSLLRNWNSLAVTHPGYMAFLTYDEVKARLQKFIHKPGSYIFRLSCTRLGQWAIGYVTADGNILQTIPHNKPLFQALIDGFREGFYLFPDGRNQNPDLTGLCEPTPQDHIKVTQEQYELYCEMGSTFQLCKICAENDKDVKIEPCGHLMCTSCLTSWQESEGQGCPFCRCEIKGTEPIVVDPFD
As to the kind of experiment: c-Cbl Biochemical Assay (TR-FRET). Conditions: hc-Cbl Biochemical Assay (TR-FRET); read-out: TR-FRET hcCbl IC50.

Where a name gives a salt, the structure may show the parent alone.

Chain of Recombinant human Cbl-b (aa 36-427) (Q13191 36-427): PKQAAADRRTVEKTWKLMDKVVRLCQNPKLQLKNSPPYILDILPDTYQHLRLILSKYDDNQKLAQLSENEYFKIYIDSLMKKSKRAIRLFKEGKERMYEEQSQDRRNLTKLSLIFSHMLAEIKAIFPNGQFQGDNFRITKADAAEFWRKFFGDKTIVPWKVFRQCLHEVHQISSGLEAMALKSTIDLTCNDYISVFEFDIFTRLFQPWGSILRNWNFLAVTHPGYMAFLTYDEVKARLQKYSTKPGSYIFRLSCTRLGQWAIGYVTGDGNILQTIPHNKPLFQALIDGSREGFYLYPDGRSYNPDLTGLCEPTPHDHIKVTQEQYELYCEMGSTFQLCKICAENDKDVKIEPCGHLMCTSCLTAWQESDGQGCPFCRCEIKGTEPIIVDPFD

As usually defined, the IC50 is the concentration at which inhibition is half-maximal. By EC50 is commonly meant the midpoint of the concentration-response curve. Regarding `Cn1cnnc1-c1cc(F)ccc1-c1cccc(-c2nc3cc(CN)cc(C(F)(F)F)c3o2)c1` [EB-1, (2-(4′-Fluoro-2′-(4-methyl-4H-1,2,4-triazol-3-yl)-[1,1′-biphenyl]-3-yl)-7-(trifluoromethyl)benzo[d]oxazol-5-yl)methanamine], the IC50 in test [1] is < 200 nM; in test [3] it was 200 to 1000 nM. Further, in test [2], the EC50 lay in the range of 1000 to 10000 nM.

Take `Cn1cnnc1-c1cc(F)ccc1-c1cccc(-c2nc3cc(CNS(C)(=O)=O)cc(C(F)(F)F)c3o2)c1` [EC-1, N-((2-(4′-Fluoro-2′-(4-methyl-4H-1,2,4-triazol-3-yl)-[1,1′-biphenyl]-3-yl)-7-(trifluoromethyl)benzo[d]oxazol-5-yl)methyl)methanesulfonamide]: the values for the IC50 in test [1] and in test [3] were < 200 nM and 200 to 1000 nM, respectively. Also, in test [2], the EC50 was in the range of 1000 to 10000 nM.

Turning to `Cn1cnnc1-c1cc(F)ccc1-c1cccc(-c2nc3cc(CN[C@@H]4CCC[C@@H]4O)cc(F)c3o2)c1` [ED-7, (1S,2R)-2-(((7-Fluoro-2-(4′-fluoro-2′-(4-methyl-4H-1,2,4-triazol-3-yl)-[1,1′-biphenyl]-3-yl)benzo[d]oxazol-5-yl)methyl)amino)cyclopentan-1-ol], the IC50 in test [1] and in test [3] was < 200 nM in each case. In test [2], the concentration for a half-maximal effect (EC50) was < 200 nM.

In the case of `COCCCNCc1cc(C(F)(F)F)c2oc(-c3cccc(-c4ccc(F)cc4-c4nncn4C)c3)nc2c1` [EE-2, N-((2-(4′-Fluoro-2′-(4-methyl-4H-1,2,4-triazol-3-yl)-[1,1′-biphenyl]-3-yl)-7-(trifluoromethyl)benzo[d]oxazol-5-yl)methyl)-3-methoxypropan-1-amine], the concentration for half-maximal inhibition (IC50) in test [1] and in test [3] was < 200 nM throughout. The EC50 in test [2] is < 200 nM.

Consider `CC(NCC1(O)CCC1)c1cc(C(F)(F)F)c2oc(-c3cccc(-c4ccc(F)cc4-c4nncn4C)c3)nc2c1` (stereo not drawn) [EF-1, 1-(((1-(2-(4′-Fluoro-2′-(4-methyl-4H-1,2,4-triazol-3-yl)-[1,1′-biphenyl]-3-yl)-7-(trifluoromethyl)benzo[d]oxazol-5-yl)ethyl)amino)methyl)cyclobutan-1-ol, formate], for which the IC50 in test [1] and in test [3] was < 200 nM each time. Further, the EC50 in test [2] is < 200 nM.

For `Cn1cnnc1-c1cc(F)ccc1-c1cccc(-c2nc3cc(CN4CO[C@H]5CCC[C@H]54)cc(C(F)(F)F)c3o2)c1` [EH-1, 2-(4′-Fluoro-2′-(4-methyl-4H-1,2,4-triazol-3-yl)-[1,1′-biphenyl]-3-yl)-5-(((3aR,6aS)-tetrahydro-2H-cyclopenta[d]oxazol-3(3aH)-yl)methyl)-7-(trifluoromethyl)benzo[d]oxazole], the IC50 in test [1] and in test [3] was < 200 nM in each case. Also, the 50% effective concentration (EC50) in test [2] is < 200 nM.

In the case of `CN(C)C(=O)CNCc1cc(C(F)(F)F)c2oc(-c3cccc(-c4ccc(F)cc4-c4nncn4C)c3)nc2c1` [EI-4, 2-(((2-(4′-Fluoro-2′-(4-methyl-4H-1,2,4-triazol-3-yl)-[1,1′-biphenyl]-3-yl)-7-(trifluoromethyl)benzo[d]oxazol-5-yl)methyl)amino)-N,N-dimethylacetamide], the IC50 in test [1] was < 200 nM; in test [3], 200 to 1000 nM. The EC50 in test [2] was in the range of 200 to 1000 nM.

As for `COC[C@H](C)NCc1cc(C(F)(F)F)c2oc(-c3cccc(-c4ccc(F)cc4-c4nncn4C)c3)nc2c1` [EJ-2, (S)—N-((2-(4′-Fluoro-2′-(4-methyl-4H-1,2,4-triazol-3-yl)-[1,1′-biphenyl]-3-yl)-7-(trifluoromethyl)benzo[d]oxazol-5-yl)methyl)-1-methoxypropan-2-amine], the IC50 in test [1] and in test [3] was < 200 nM throughout. In addition, the EC50 in test [2] was < 200 nM.

Turning to `Cn1cnnc1-c1cc(F)ccc1-c1cccc(-c2nc3ccc(CN[C@@H]4CCC[C@@H]4O)cc3s2)c1` [EK-5, (1S,2R)-2-(((2-(4′-Fluoro-2′-(4-methyl-4H-1,2,4-triazol-3-yl)-[1,1′-biphenyl]-3-yl)benzo[d]thiazol-6-yl)methyl)amino)cyclopentan-1-ol], the IC50 in test [1] and in test [3] was 1000 to 10000 nM in each case. For the same molecule, in test [2], the EC50 was in the range of 1000 to 10000 nM.

On to `COCCNCc1cc(OC)c2oc(-c3cccc(-c4ccc(F)cc4-c4nncn4C)c3)nc2c1` [EL-1, N-((2-(4′-Fluoro-2′-(4-methyl-4H-1,2,4-triazol-3-yl)-[1,1′-biphenyl]-3-yl)-7-methoxybenzo[d]oxazol-5-yl)methyl)-2-methoxyethan-1-amine], for which the 50% inhibitory concentration (IC50) in test [1] and in test [3] was < 200 nM in each case. In addition, in test [2], the concentration giving a half-maximal response (EC50) fell in the range of 200 to 1000 nM.

Take `Cn1cnnc1-c1cc(F)ccc1-c1cccc(-c2nc3cc(CNCC4CCC4)cc(C(F)(F)F)c3o2)c1` [EM-2, 1-Cyclobutyl-N-((2-(4′-fluoro-2′-(4-methyl-4H-1,2,4-triazol-3-yl)-[1,1′-biphenyl]-3-yl)-7-(trifluoromethyl)benzo[d]oxazol-5-yl)methyl)methanamine]: the IC50 in test [1] and in test [3] was < 200 nM throughout. Moreover, in test [2], the half-maximal effective concentration (EC50) was < 200 nM.

With `COC[C@@H](C)NCc1cc(C(F)(F)F)c2oc(-c3cccc(-c4ccc(F)cc4-c4nncn4C)c3)nc2c1` [EN-2, (R)—N-((2-(4′-Fluoro-2′-(4-methyl-4H-1,2,4-triazol-3-yl)-[1,1′-biphenyl]-3-yl)-7-(trifluoromethyl)benzo[d]oxazol-5-yl)methyl)-1-methoxypropan-2-amine], the figures for the IC50 in test [1] and in test [3] were < 200 nM and 200 to 1000 nM, respectively. In test [2], the EC50 is 200 to 1000 nM.

`COCC(C)(C)NCc1cc(C(F)(F)F)c2oc(-c3cccc(-c4ccc(F)cc4-c4nncn4C)c3)nc2c1` [EO-2, N-((2-(4′-Fluoro-2′-(4-methyl-4H-1,2,4-triazol-3-yl)-[1,1′-biphenyl]-3-yl)-7-(trifluoromethyl)benzo[d]oxazol-5-yl)methyl)-1-methoxy-2-methylpropan-2-amine]: the IC50 was < 200 nM in test [1] and 200 to 1000 nM in test [3]. The EC50 in test [2] fell in the range of 1000 to 10000 nM.

As to `CC(C)NCc1cc(C(F)(F)F)c2oc(-c3cccc(-c4ccc(F)cc4-c4nncn4C)c3)nc2c1` [EP-2, N-((2-(4′-Fluoro-2′-(4-methyl-4H-1,2,4-triazol-3-yl)-[1,1′-biphenyl]-3-yl)-7-(trifluoromethyl)benzo[d]oxazol-5-yl)methyl)propan-2-amine], the IC50 in test [1] is < 200 nM; in test [3] it was 200 to 1000 nM. The EC50 in test [2] was in the range of 200 to 1000 nM.

For `Cn1cnnc1-c1cc(F)ccc1-c1cccc(-c2nc3cc(CO)cc(Br)c3o2)c1` [EQ-4, (7-Bromo-2-(4′-fluoro-2′-(4-methyl-4H-1,2,4-triazol-3-yl)-[1,1′-biphenyl]-3-yl)benzo[d]oxazol-5-yl)methanol], the IC50 in test [1] and in test [3] was 200 to 1000 nM in each case. In addition, the EC50 in test [2] was in the range of 1000 to 10000 nM.

With `Cn1cnnc1-c1cc(F)ccc1-c1cccc(-c2nc3cc(CN[C@@H]4CCC[C@@H]4O)cc(Br)c3o2)c1` [ER-2, (1S,2R)-2-(((7-Bromo-2-(4′-fluoro-2′-(4-methyl-4H-1,2,4-triazol-3-yl)-[1,1′-biphenyl]-3-yl)benzo[d]oxazol-5-yl)methyl)amino)cyclopentan-1-ol], the IC50 in test [1] and in test [3] was < 200 nM throughout. Moreover, the EC50 in test [2] was < 200 nM.

`Cn1cnnc1-c1cc(F)ccc1-c1cccc(-c2nc3cc(CO)cc(C4CC4)c3o2)c1` [ES-4, (7-Cyclopropyl-2-(4′-fluoro-2′-(4-methyl-4H-1,2,4-triazol-3-yl)-[1,1′-biphenyl]-3-yl)benzo[d]oxazol-5-yl)methanol]: the IC50 in test [1] is < 200 nM; in test [3] it was 200 to 1000 nM. Also, in test [2], the EC50 was 1000 to 10000 nM.

On to `Cn1cnnc1-c1cc(F)ccc1-c1cccc(-c2nc3cc(CN[C@@H]4CCC[C@@H]4O)cc(C4CC4)c3o2)c1` [ES-6, (1S,2R)-2-(((7-Cyclopropyl-2-(4′-fluoro-2′-(4-methyl-4H-1,2,4-triazol-3-yl)-[1,1′-biphenyl]-3-yl)benzo[d]oxazol-5-yl)methyl)amino)cyclopentan-1-ol], for which the IC50 in test [1] and in test [3] was < 200 nM throughout. For the same molecule, in test [2], the EC50 is < 200 nM.

On to `Cn1cnnc1-c1cc(F)ccc1-c1cccc(-c2nc3cc(CN[C@@H]4CCC[C@@H]4O)ccc3s2)c1` [ET-8, (1S,2R)-2-(((2-(4′-Fluoro-2′-(4-methyl-4H-1,2,4-triazol-3-yl)-[1,1′-biphenyl]-3-yl)benzo[d]thiazol-5-yl)methyl)amino)cyclopentan-1-ol], for which the IC50 in test [1] and in test [3] was < 200 nM each time. In addition, the EC50 in test [2] lay within 200 to 1000 nM.

`Cn1cnnc1-c1cc(F)ccc1-c1cccc(-c2nc3cc(CNC[C@H]4CCCO4)cc(C(F)(F)F)c3o2)c1` [EU-2, (R)-1-(2-(4′-Fluoro-2′-(4-methyl-4H-1,2,4-triazol-3-yl)-[1,1′-biphenyl]-3-yl)-7-(trifluoromethyl)benzo[d]oxazol-5-yl)-N-((tetrahydrofuran-2-yl)methyl)methanamine]: the IC50 in test [1] and in test [3] was < 200 nM each time. Also, in test [2], the EC50 was < 200 nM.

Consider `Cn1cnnc1-c1cc(F)ccc1-c1cccc(-c2nc3cc(CN[C@@H]4CCC[C@@H]4O)cc(C(C)(C)C)c3o2)c1` [EV-9, (1S,2R)-2-(((7-(tert-Butyl)-2-(4′-fluoro-2′-(4-methyl-4H-1,2,4-triazol-3-yl)-[1,1′-biphenyl]-3-yl)benzo[d]oxazol-5-yl)methyl)amino)cyclopentan-1-ol], for which the IC50 in test [1] and in test [3] was < 200 nM each time. In addition, in test [2], the EC50 was < 200 nM.
